In US10653141B2, “Compositions and methods for attracting mosquitoes and repelling sand flies” (priority 2014, dated 2020):

What was measured:
Phlebotomus dubosqui = assay: Dual-choice bioassay, treated vs control chamber; assay type: in vivo; conditions: 1,200 mg DEET
From the text: Through a series of dual-choice bioassays, a new combination of plant volatile semiochemicals was identified, which acts as a powerful repellent against two vector species of sand flies, Lutzomyia longipalpis and Phlebotomus dubosqui (vectors of leishmaniasis). […] Female sand flies repelled from host environments will be less likely to obtain a blood meal, reducing egg production, while aggregation by males, which typically occurs near hosts, will also be impeded by the presence of a repellent. Both of these interventions will lead to a decrease in reproductive success within the treated area, and over time, a reduction in sand fly population size.
Vectrax can also be deployed as a vehicle for the controlled release of repellent plant volatiles, to manage sand fly populations. […] This plant-based repellent formulation could reduce sand fly populations in a number of ways. Female sand flies repelled from host environments by Vectrax will be less likely to obtain a blood meal, reducing egg production, while lek formation by males, which typically occurs near hosts, will also be impeded by the presence of a repellent. Both of these interventions will lead to a decrease in reproductive success within the treated area, and over time, a reduction in sand fly population size.

mosquitoes = assay: Laboratory and mesocosm trials of Vectrax bait blended with insecticide; assay type: in vivo
From the text: Vectrax Bait Stations. To apply Vectrax within bait stations, the formulation—again, previously shaken or stirred—is loaded into a reservoir that provides the target insects with easy access to the attractant material, similar to a hummingbird feeder. […] In order to maintain maximum A&K efficiency, the toxicant component should be blended into the Vectrax attractant formulation as close to the time of application as possible. The attractant or A&K formulation may be loaded into the bait station in amounts ranging from a few grams to several liters, depending on the desired field life. If desired, a sponge or other absorbent material may be applied with the formulation, to facilitate landing by the mosquitoes. As with Vectrax-baited traps, Vectrax bait stations may be deployed singly, as a means to divert or attract and kill mosquitoes in sensitive environments (i.e., rural residences, backyards, recreational activity sites), or as part of a mosquito management strategy, placed at whatever locations and whatever density is thought to be required.

## CCN(CC)C(=O)c1cccc(C)c1 [DEET, N, N-diethyl-meta-toluamide]
Phlebotomus dubosqui
  flies selecting the untreated over the treated chamber (repellency): 79%

## CNC(=O)c1cc(C#N)cc(C)c1NC(=O)c1cc(Br)nn1-c1ncccc1Cl [cyazypyr]
mosquitoes
  efficacy as insecticide blended into Vectrax attract and kill bait: quite effective
